According to publication PMC5557014 (Biochemical pharmacology, 2017):

Assays:
[1] = target: T1, HIV-1 RT (Human immunodeficiency virus type 1 group M subtype B, UniProt P04585); assay: Gel-based HIV-1 RT-catalyzed DNA synthesis on heteropolymeric DNA; format: biochemical
[2] = test system: HIV-1 RT L100I; conditions: Poly rC.dG [^3H]dGTP
[3] = test system: HIV-1 RT M184V + E138K; assay: Mutant HIV-1 RT assay M184V + E138K; format: biochemical; conditions: Poly rC.dG [^3H]dGTP
[4] = target: T2, HSV-1 DNA polymerase (Human herpesvirus 1, UniProt P04293); assay: biochemical; format: biochemical; conditions: varying dGTP, calf thymus DNA
[5] = test system: HIV-1 RT M184V; assay: Mutant HIV-1 RT assay M184V; format: biochemical; conditions: Poly rC.dG [^3H]dGTP
[6] = target: T3, cellular DNA polymerase α (Homo sapiens, UniProt P09884); assay: Cellular DNA polymerase α assay; format: biochemical
T3 sequence (P09884 1-1462): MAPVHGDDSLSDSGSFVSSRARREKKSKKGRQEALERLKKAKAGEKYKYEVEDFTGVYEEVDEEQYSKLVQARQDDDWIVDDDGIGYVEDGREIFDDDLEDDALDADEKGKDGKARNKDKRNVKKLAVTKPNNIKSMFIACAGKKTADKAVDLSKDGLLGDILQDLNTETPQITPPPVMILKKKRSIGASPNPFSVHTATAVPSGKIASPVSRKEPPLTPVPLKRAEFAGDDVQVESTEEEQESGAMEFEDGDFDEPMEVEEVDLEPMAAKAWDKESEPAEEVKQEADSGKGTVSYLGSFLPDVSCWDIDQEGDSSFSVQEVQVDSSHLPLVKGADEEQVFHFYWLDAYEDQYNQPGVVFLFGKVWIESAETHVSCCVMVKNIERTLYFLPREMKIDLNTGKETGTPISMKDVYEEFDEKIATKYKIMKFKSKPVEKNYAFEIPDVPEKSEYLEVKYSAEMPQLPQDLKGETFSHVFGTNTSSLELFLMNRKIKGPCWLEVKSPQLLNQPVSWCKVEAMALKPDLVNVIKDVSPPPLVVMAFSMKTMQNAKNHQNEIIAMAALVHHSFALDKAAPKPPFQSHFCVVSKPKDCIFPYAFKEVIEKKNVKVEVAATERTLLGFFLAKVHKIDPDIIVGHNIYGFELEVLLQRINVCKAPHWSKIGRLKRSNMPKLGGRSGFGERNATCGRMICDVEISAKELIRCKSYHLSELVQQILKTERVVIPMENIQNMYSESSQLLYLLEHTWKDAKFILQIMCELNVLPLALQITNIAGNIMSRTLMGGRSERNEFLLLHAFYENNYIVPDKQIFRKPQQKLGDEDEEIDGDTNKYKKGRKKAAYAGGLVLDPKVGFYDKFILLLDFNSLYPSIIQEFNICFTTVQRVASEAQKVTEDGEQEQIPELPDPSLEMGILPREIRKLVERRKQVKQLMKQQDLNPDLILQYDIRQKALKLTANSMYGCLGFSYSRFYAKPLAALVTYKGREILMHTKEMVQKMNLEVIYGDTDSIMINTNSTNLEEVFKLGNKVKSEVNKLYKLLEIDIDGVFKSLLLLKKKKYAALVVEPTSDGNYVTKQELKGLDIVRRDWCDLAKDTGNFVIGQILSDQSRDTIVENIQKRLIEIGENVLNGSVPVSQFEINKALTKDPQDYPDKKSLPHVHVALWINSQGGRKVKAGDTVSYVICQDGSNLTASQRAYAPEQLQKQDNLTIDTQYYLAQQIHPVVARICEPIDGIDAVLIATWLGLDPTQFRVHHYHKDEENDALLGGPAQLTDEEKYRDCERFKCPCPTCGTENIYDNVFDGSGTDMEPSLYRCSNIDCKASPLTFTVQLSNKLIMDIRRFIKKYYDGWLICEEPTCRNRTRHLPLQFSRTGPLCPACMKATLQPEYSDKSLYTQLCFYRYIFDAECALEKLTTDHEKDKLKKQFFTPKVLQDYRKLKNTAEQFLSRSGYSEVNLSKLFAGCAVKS

[7] = test system: HIV-1 RT Q151M; assay: Mutant HIV-1 RT assay Q151M; format: biochemical; conditions: Poly rC.dG [^3H]dGTP
[8] = target: T1, HIV-1 RT; assay: Site-specific Fe2+ footprinting, post-translocation trapping; format: binding
[9] = test system: HIV-1 RT K70Q; assay: Mutant HIV-1 RT assay K70Q; format: biochemical; conditions: Poly rC.dG [^3H]dGTP
[10] = target: T1, HIV-1 RT; assay: Kinetic analysis of HIV-1 RT inhibition; format: biochemical
[11] = test system: HIV-1 RT V75I; assay: Mutant HIV-1 RT assay V75I; format: biochemical; conditions: Poly rC.dG [^3H]dGTP
[12] = test system: HIV-1 RT M184V + Y115F; assay: Mutant HIV-1 RT assay M184V + Y115F; format: biochemical; conditions: Poly rC.dG [^3H]dGTP
[13] = test system: HIV-1 RT V106A; conditions: Poly rC.dG [^3H]dGTP
[14] = target: T1, HIV-1 RT; assay: HIV-1 RT assay with homopolymeric template/primers; format: biochemical; conditions: IC50 HIV-1 RT
[15] = test system: HIV-1 RT K70E; assay: Mutant HIV-1 RT assay K70E; format: biochemical; conditions: Poly rC.dG [^3H]dGTP
[16] = test system: HIV-1 RT M184I; assay: Mutant HIV-1 RT assay M184I; format: biochemical; conditions: Poly rC.dG [^3H]dGTP
[17] = test system: HIV-1 RT Y181C; conditions: Poly rC.dG [^3H]dGTP
[18] = test system: HIV-1 RT F61A; assay: Mutant HIV-1 RT assay F61A; format: biochemical; conditions: Poly rC.dG [^3H]dGTP
[19] = test system: HIV-1 RT Y115F; assay: Mutant HIV-1 RT assay Y115F; format: biochemical; conditions: Poly rC.dG [^3H]dGTP
[20] = target: T2, HSV-1 DNA polymerase; assay: HSV-1 DNA polymerase enzyme assay; format: biochemical; conditions: IC50 HSV-1 DNA pol, calf thymus DNA
[21] = target: T4, HCMV DNA polymerase (Human cytomegalovirus, UniProt P08546); assay: Kinetic analysis of HCMV DNA polymerase inhibition; format: biochemical; conditions: varying dGTP, calf thymus DNA
[22] = test system: HIV-1 RT K103N; conditions: Poly rC.dG [^3H]dGTP
[23] = test system: HIV-1 RT E138K; assay: Mutant HIV-1 RT assay E138K; format: biochemical; conditions: Poly rC.dG [^3H]dGTP
[24] = target: T4, HCMV DNA polymerase; assay: HCMV DNA polymerase enzyme assay; format: biochemical; conditions: IC50 HCMV DNA pol, calf thymus DNA
[25] = target: cellular DNA polymerase β (Homo sapiens, UniProt P06746); assay: Cellular DNA polymerase β assay; format: biochemical
[26] = test system: HIV-1 RT K70R; assay: Mutant HIV-1 RT assay K70R; format: biochemical; conditions: Poly rC.dG [^3H]dGTP
[27] = test system: HIV-1 RT K65R; assay: Mutant HIV-1 RT assay K65R; format: biochemical; conditions: Poly rC.dG [^3H]dGTP

T4 sequence (P08546 whole entry): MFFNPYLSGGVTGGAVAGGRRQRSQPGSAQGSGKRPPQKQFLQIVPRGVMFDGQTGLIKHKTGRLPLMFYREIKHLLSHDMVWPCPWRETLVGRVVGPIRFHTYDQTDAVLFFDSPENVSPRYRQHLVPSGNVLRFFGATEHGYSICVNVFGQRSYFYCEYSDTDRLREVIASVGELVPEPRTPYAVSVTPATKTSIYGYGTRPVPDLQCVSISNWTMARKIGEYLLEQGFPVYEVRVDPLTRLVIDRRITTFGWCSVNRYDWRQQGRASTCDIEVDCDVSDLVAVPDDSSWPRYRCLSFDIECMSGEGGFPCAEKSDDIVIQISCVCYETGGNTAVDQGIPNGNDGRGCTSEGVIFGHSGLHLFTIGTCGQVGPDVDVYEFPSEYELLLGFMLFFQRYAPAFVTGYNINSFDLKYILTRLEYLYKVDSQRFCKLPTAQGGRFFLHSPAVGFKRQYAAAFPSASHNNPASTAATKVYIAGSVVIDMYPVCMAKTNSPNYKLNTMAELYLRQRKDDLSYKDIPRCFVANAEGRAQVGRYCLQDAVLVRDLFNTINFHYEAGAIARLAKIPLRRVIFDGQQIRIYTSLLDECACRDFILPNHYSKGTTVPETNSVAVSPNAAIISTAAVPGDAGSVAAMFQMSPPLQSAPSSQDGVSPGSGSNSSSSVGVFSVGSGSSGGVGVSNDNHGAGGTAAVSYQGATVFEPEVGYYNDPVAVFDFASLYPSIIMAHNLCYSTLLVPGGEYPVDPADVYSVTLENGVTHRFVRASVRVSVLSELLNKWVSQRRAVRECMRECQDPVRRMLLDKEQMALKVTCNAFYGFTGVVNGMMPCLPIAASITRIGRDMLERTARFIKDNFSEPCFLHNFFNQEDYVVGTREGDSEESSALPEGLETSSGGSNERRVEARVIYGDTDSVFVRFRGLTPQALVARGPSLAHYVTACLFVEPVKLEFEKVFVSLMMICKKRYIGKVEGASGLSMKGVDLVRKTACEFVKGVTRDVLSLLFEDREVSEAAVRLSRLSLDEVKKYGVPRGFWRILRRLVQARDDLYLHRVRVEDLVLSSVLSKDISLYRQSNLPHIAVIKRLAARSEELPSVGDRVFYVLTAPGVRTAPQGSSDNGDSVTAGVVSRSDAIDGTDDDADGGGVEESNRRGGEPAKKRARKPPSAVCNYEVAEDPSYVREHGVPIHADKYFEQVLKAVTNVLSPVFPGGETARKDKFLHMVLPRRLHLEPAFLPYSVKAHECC
T2 sequence (P04293 whole entry): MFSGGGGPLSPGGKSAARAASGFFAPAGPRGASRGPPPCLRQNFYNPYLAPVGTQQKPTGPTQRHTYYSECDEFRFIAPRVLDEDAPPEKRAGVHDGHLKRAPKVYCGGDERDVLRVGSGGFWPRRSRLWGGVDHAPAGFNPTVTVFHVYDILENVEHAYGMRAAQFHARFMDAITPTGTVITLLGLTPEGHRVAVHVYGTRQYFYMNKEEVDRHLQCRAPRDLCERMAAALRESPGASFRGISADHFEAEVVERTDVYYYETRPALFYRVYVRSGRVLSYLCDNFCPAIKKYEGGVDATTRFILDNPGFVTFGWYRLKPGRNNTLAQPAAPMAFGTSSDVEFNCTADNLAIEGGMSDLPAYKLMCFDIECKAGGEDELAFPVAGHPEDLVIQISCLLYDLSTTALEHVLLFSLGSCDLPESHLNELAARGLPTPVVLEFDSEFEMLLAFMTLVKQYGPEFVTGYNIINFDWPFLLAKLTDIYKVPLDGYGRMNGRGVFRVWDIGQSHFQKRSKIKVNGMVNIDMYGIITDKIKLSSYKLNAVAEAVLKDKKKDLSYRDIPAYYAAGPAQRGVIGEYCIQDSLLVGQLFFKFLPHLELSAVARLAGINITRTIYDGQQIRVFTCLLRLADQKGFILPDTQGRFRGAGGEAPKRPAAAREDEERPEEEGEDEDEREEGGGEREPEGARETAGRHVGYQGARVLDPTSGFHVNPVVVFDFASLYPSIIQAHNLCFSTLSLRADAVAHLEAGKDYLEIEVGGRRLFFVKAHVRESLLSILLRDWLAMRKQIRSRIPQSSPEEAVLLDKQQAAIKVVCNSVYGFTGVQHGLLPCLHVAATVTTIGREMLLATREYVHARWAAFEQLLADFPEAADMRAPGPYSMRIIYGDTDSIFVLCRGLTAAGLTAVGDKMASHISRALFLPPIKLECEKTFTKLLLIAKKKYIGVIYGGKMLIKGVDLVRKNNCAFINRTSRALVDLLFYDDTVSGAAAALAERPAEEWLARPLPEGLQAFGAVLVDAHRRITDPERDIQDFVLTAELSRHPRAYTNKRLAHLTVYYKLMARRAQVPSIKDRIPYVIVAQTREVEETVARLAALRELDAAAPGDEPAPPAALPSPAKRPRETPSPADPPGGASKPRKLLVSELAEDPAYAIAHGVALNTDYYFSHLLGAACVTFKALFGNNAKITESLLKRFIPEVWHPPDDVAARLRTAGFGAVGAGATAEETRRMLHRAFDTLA

SMILES: Nc1nc2c(ncn2[C@@H]2CC[C@H](OC(C(=O)O)P(=O)(O)O)C2)c(=O)[nH]1 (mixture of isomers) [(L,D)-(±)G-α-CNP, cis-9-{4-[Carboxy(phosphono)methoxy]cyclopentan-1-yl}guanine]
- IC50 [1]: 1.8 ± 1.1 µM
- Fold-resistance compared to wild-type [2]: 5.2 fold
- Fold-resistance compared to wild-type [3]: 6.1 fold
- Ki ([4]; competitive model): 0.521 µM
- Ki ([4]; mixed model enzyme inhibition): 9.28 µM
- Ki ([4]; non-competitive model): 4.17 µM
- Most likely mode of inhibition [4]: Non-competitive
- α (alpha-value), mixed model enzyme inhibition [4]: 0.386
- Fold-resistance compared to wild-type [5]: 8.7 fold
- IC50 [6]: 477 ± 83 µM
- Fold-resistance compared to wild-type [7]: 3.1 fold
- EC50 [8]: 0.044 ± 0.002 µM
- Fold-resistance compared to wild-type [9]: 0.7 fold
- Ki ([10]; competitive model, varying dGTP, poly rC.dG): 0.455 µM
- Ki ([10]; competitive model, varying poly rC.dG): 0.035 µM
- Ki ([10]; mixed model enzyme inhibition, varying dGTP, poly rC.dG): 0.944 µM
- Ki ([10]; mixed model enzyme inhibition, varying poly rC.dG): 0.832 µM
- Ki ([10]; non-competitive model, varying dGTP, poly rC.dG): 1.3 µM
- Ki ([10]; non-competitive model, varying poly rC.dG): 0.169 µM
- Most likely mode of inhibition ([10]; varying dGTP, poly rC.dG): Competitive
- α (alpha-value), mixed model enzyme inhibition ([10]; varying dGTP, poly rC.dG): 1.799
- Most likely mode of inhibition ([10]; varying poly rC.dG): Non-competitive
- α (alpha-value), mixed model enzyme inhibition ([10]; varying poly rC.dG): 0.147
- Fold-resistance compared to wild-type [11]: 8.7 fold
- Fold-resistance compared to wild-type [12]: 39 fold
- Fold-resistance compared to wild-type [13]: 1.6 fold
- IC50 ([14]; poly rA.dT, [^3H]dTTP): 536 µM
- IC50 ([14]; poly rC.dG, [^3H]dGTP): 0.62 ± 0.19 µM
- Fold-resistance compared to wild-type [15]: 0.7 fold
- Fold-resistance compared to wild-type [16]: 19 fold
- Fold-resistance compared to wild-type [17]: 5.2 fold
- Fold-resistance compared to wild-type [18]: 79 fold
- Fold-resistance compared to wild-type [19]: 2.3 fold
- IC50 ([20]; [^3H]dGTP): 8 ± 6 µM
- IC50 ([20]; [^3H]dTTP): 32 ± 11 µM
- Ki ([21]; competitive model): 2.12 µM
- Ki ([21]; mixed model enzyme inhibition): 9.2 µM
- Ki ([21]; non-competitive model): 8.59 µM
- Most likely mode of inhibition [21]: Non-competitive
- α (alpha-value), mixed model enzyme inhibition ([21]; listed as (D,L)-(−,+)-G-α-CNP): 0.904
- Fold-resistance compared to wild-type [22]: 1.1 fold
- Fold-resistance compared to wild-type [23]: 0.9 fold
- IC50 ([24]; [^3H]dGTP): 9.4 ± 0.2 µM
- IC50 ([24]; [^3H]dTTP): 16 ± 8 µM
- IC50 [25]: 531 ± 5 µM
- Fold-resistance compared to wild-type [26]: 2.6 fold
- Fold-resistance compared to wild-type [27]: 2.1 fold
